Data set [1] in a line: Bioavailability and pharmacokinetics of polymorphs 1 and 2 after single oral dose, cross-over, in dogs. The data set is classed as in vivo, male Beagle dog. The following applies: for LS geometric mean Cmax: corrected to a 60.0-mg dose; for adverse reactions to the oral administration: single oral dose 60 mg/kg. On the procedure:
This study was designed to obtain blood plasma samples to enable the comparison of the bioavailability and pharmacokinetics of two different polymorphs 1 and 2 following single-dose oral administration to six dogs. A cross-over design was used with three dogs treated according to sequence 1 (polymorph 2 after 1) and three dogs according to sequence 2 (polymorph 1 after 2) with a one-week washout period between treatments.
Each polymorph was prepared as a suspension in a vehicle of 0.5% w/v HPMC K15M/0.5% w/v Tween 80 in sterile water.
Six male Beagle dogs (Tattoo numbers: 4986, 0964, 3611, 2380, 5002 and 1122 on-study animal numbers: 001 M, 002M, 003M, 004M, 005M and 006M, respectively) bodyweight 9.5-11.5 kg, aged 2-7 years at dosing, currently held as part of a colony of animals (Colony number: 190431) were used on this study. Dogs were originally obtained from Marshall Farms USA Inc. (NY, USA) or Envigo RMS, and were bred for use in scientific procedures. During pre-trial and on-study periods, the animals were group-housed in caging appropriate to the species. Prior to acceptance for use on study, animals were subject to a veterinary examination and the results found to be satisfactory. Holding and study areas had automatic control of light cycles and temperature. Light hours were 0700-1900 h. Ranges of temperature and humidity measured during the study were 17.0-21.8° C. and 23.4-83.07%, respectively. All animals were weighed prior to each dose administration and the bodyweights recorded. With the exception of a period of fasting from overnight predose until 4 hours post dose, a daily allowance of 200-300 g of standard laboratory diet of known formulation (SDS D3 (E) SQC) was available. Mains quality tap water was available ad libitum.
The formulation was always prepared on the morning of dose administration. Each polymorph was prepared as a suspension at a concentration of 12 mg/mL in a vehicle of 0.5% w/v HPMC K15M/0.5% w/v Tween 80 in sterile water for injection. The required volume of vehicle was added to an appropriate formulation container.
Each group of 3 male dogs, received a single oral dose administration of a polymorph at a target dose level of 60 mg/kg. Following a wash out period of 1 week each group of 3 male dogs received the alternative polymorph.
For each group, whole blood samples (ca 1.0 mL) were collected from the jugular veins in to NaF/EDTA tubes at the following time points:
Times given above were target times which were adhered to as closely as possible. Actual times of sample collection (and of dosing) were recorded (Table 2) and used in the evaluation of pharmacokinetic parameters. Immediately following collection, blood samples were placed on wet ice. As soon as practically possible the blood samples were centrifuged (+4° C., 1500 g, 10 min). The resulting plasma was divided into two aliquots (vial A: 100 μl plasma, vial B: remaining volume) and stored in appropriately labelled polypropylene tubes in a freezer set to maintain a temperature of −80° C. until shipment. All plasma samples, remaining dose formulation and dose aliquots were stored in a freezer set to maintain a temperature of −80° C. until shipment.
Pharmacokinetic (PK) parameters were estimated using Phoenix pharmacokinetic software using a non-compartmental approach consistent with the oral route of administration. All parameters were generated from polymorph 1 and 2 individual concentrations in plasma. Parameters were estimated using nominal sampling times relative to the start of each dose administration within an allowable deviation range (±10%). Predose samples below the limit of quantification (0.5 ng/mL) were assumed to be 0 for the PK analysis.
The area under the polymorph 1 and 2 plasma concentration versus time curve (AUC) was calculated using the linear trapezoidal method with linear interpolation. […]

A further data set addresses BLK tyrosine kinase (Homo sapiens, UniProt P51451). Kind of data set: Effect on BLK tyrosine kinase activity. The data set is classed as biochemical.
For another data set, the target named is LynA tyrosine kinase (Homo sapiens, UniProt P07948). Nature of the data set: Effect on LynA tyrosine kinase activity. The data set is classed as biochemical.
LynA tyrosine kinase, sequence (P07948 whole entry): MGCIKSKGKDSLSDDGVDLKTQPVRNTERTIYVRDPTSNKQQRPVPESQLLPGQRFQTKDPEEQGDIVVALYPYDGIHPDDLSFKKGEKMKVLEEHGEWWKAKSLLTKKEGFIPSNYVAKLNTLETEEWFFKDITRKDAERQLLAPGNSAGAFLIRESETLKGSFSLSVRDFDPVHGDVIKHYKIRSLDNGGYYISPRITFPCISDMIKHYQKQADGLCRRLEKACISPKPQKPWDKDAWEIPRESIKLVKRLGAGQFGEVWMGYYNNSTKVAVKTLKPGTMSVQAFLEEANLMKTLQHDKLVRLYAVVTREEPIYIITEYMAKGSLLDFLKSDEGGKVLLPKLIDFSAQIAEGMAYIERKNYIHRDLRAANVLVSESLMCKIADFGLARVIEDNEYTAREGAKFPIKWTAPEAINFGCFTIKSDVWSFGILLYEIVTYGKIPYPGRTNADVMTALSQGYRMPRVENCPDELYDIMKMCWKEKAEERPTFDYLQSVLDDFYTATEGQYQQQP
For another data set, the target named is LynB tyrosine kinase (Homo sapiens, UniProt P07948). Nature of the data set: Effect on LynB tyrosine kinase activity. Type of data set: biochemical.
LynB tyrosine kinase, sequence (P07948 1-491 isoform P07948-2): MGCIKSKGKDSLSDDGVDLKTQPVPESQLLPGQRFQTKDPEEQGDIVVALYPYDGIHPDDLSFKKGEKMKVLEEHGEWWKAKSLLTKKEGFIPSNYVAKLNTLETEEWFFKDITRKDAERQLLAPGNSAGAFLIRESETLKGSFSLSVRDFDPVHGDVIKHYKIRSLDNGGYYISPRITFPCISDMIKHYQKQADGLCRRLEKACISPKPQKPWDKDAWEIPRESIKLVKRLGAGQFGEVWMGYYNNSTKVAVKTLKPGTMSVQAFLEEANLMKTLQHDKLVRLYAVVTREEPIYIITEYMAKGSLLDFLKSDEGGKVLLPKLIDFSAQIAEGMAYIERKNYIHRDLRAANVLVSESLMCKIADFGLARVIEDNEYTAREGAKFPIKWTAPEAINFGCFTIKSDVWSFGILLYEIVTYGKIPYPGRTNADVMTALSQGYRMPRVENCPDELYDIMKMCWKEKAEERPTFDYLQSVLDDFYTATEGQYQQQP
Data set [2] in a line: Gravimetric Vapour Sorption (GVS). To be noted: for change of polymorphic form on GVS cycling: hysteresis between cycles / XRPD after the cycles; for weight gain to 80% RH (GVS): first adsorption cycle. Type of data set: physicochemical. On the procedure: Gravimetric Vapour Sorption (GVS)
Approximately 10 mg of sample was placed into a wire-mesh vapour sorption balance pan and loaded into an ‘IgaSorp’ vapour sorption balance (Hiden Analytical Instruments). The sample was then dried by maintaining a 0% humidity environment until no further weight change was recorded. Subsequently, the sample was subjected to a ramping profile from 0-90% RH at 10% RH increments, maintaining the sample at each step until equilibration had been attained (99% step completion). Upon reaching equilibration, the % RH within the apparatus was ramped to the next step and the equilibration procedure repeated. After completion of the sorption cycle, the sample was then dried using the same procedure. The weight change during the sorption/desorption cycles were then monitored, allowing for the hygroscopic nature of the sample to be determined.

Where [3] appears, read: male Beagle dog plasma, oral suspension, target 60 mg/kg.

Where two headings read alike, the source gives them in different places.

BLK tyrosine kinase, sequence (P51451 whole entry): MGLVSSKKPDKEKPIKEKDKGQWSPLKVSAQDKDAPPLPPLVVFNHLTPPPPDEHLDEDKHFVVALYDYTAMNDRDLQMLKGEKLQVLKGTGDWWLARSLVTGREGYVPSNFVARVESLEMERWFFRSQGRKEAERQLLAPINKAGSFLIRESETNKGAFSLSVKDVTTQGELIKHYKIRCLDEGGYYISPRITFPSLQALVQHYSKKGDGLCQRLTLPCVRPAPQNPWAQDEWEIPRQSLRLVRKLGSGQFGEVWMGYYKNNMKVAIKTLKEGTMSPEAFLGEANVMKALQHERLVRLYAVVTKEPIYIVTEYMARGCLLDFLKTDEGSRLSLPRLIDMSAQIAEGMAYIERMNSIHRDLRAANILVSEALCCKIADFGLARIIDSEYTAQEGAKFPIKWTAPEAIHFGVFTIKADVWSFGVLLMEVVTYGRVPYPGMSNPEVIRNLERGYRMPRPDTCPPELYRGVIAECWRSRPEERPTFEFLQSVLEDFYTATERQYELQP

On to `C[C@H](O)COC[C@H](Cc1ccc(O)cc1)NC(=O)CCc1ccccc1` [NRD135S.E1, (S,S)-2-N(3-O-(propan-2-ol)-1-propyl-4-hydroxybenzene)-3-phenylpropylamide], for which, in data set [1] (male Beagle dog, oral 60 mg/kg), the “extrapolated part of AUC(0-∞)” value is “no more than 6%”. In addition, in data set [1] (plasma, male Beagle dog, oral 60 mg/kg, terminal decline, read-out: estimated mean half-life), the half-life was 3 to 4 h. At BLK tyrosine kinase, the “effect on activity of BLK tyrosine kinase” value is reported as “capable of activating”. The “effect on activity of LynA tyrosine kinase” value at LynA tyrosine kinase is reported as “capable of activating”. In addition, the “effect on activity of LynB tyrosine kinase” value at LynB tyrosine kinase was “no or substantially no effect”.

In the case of `C[C@H](O)COC[C@H](Cc1ccc(O)cc1)NC(=O)CCc1ccccc1` [polymorph 1, (S,S)-2-N(3-O-(propan-2-ol)-1-propyl-4-hydroxybenzene)-3-phenylpropylamide], in data set [2], the “hygroscopicity (GVS, in words)” value was “hygroscopic”; the “change of polymorphic form on GVS cycling” value is listed as “hinted towards form change”; the “weight gain to 80% RH (GVS)” value was found to be 5.6%. Besides, the “weight increase in second adsorption cycle (GVS)” value in data set [2] (second adsorption cycle, RH of 40%) is above 2%. Moreover, the “weight increase to 70% RH (GVS)” value in data set [2] (to 70% RH) is given as around 1.3%. For the same molecule, in data set [1] (setting [3]), the “LS geometric mean Cmax” value amounted to 4986 ng/mL. Further, the “adverse reactions to the oral administration” value in data set [1] (male Beagle dog) is listed as “No adverse reactions”. Also, the AUC(0-inf) in data set [1] (male, Beagle, dog, plasma, po, 60 mg/kg, male Beagle dog plasma, oral suspension, target 60 mg/kg, corrected to a 60.0 mg dose, read-out: LS geometric mean AUC(0-∞)) turned out to be 13200 ng·h/mL.

Turning to `C[C@H](O)COC[C@H](Cc1ccc(O)cc1)NC(=O)CCc1ccccc1` [polymorph 2, (S,S)-2-N(3-O-(propan-2-ol)-1-propyl-4-hydroxybenzene)-3-phenylpropylamide], in data set [2], the “hygroscopicity (GVS, in words)” value is given as “only slightly hygroscopic” and the “weight gain to 80% RH (GVS)” value turned out to be 0.6%. Moreover, in data set [2] (after two adsorption/desorption cycles), the “overall weight loss by the end of the two adsorption/desorption cycles (GVS)” value was around 1%. In data set [2] (listed as Form 2), the “change of polymorphic form on GVS cycling” value was “no change of polymorphic form”; the “hygroscopicity (GVS, in words)” value is listed as “only slightly hygroscopic”; the “weight gain to 80% RH (GVS)” value was 0.6%. Further, in data set [1] (dog bioavailability tests), the “bioavailability (in words)” value was “exceptionally high”. The “LS geometric mean AUC(0-∞)” value in data set [1] (male Beagle dog plasma, oral suspension, target 60 mg/kg, corrected to a 60.0 mg dose) worked out at 20064 ng·h/mL. Besides, the “LS geometric mean Cmax” value in data set [1] (setting [3]) is 11088 ng/mL. Further, the “geometric mean ratio (polymorph 2/polymorph 1) of AUC(0-∞)” value in data set [1] (male Beagle dog, oral, dose-corrected, 90% CI 1.35, 1.71) is recorded as 1.52. Besides, the “geometric mean ratio (polymorph 2/polymorph 1) of Cmax” value in data set [1] (male Beagle dog, oral, dose-corrected, 90% CI 1.84, 2.70) came to 2.22. In addition, in data set [1] (male Beagle dog), the “adverse reactions to the oral administration” value is given as “No adverse reactions”.

The record behind these values is patent publication US11891350B2, “Compounds for use in the treatment or prophylaxis of pain, inflammation and/or autoimmunity” (NOVAREMED LTD., priority 2019, dated 2024).
